Results on nine compounds are retold here after BindingDB's records for doi:10.1021/jm00210a006 (1979).

Test [1] has as its target T1, Complement C1s subcomponent (Homo sapiens, UniProt P09871).
T1 sequence (P09871 whole entry): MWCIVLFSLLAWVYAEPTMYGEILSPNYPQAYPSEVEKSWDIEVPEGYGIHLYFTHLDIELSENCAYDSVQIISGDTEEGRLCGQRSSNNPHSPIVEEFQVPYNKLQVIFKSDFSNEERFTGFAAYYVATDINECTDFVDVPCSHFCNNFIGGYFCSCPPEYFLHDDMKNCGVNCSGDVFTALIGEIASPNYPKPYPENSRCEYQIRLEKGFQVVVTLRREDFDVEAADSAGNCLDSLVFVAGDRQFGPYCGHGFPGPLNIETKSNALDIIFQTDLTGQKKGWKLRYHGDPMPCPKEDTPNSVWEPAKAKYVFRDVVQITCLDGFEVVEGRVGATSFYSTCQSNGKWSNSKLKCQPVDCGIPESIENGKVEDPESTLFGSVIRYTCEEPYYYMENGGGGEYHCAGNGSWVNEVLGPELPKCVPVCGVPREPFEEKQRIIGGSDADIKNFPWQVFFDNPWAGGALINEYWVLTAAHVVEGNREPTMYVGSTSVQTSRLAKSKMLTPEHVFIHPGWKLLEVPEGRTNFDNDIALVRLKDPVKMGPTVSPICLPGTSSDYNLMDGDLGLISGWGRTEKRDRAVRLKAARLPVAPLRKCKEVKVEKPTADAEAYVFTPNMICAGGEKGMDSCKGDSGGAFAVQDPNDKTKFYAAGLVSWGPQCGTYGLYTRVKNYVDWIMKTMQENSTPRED
The test is described as follows: Competitive inhibition of esterase activity of human activated C1s subunit of first complement component assessed as decrease in p-nitrophenol production using N-Z-L-Tyr-ONp as substrate by spectrophotometric analysis.

In a further test the target is Plasminogen (Homo sapiens, UniProt P00747). The test is described as follows: Competitive inhibition of esterase activity of human plasmin assessed as assessed as decrease in p-nitrophenol production using N-Z-L-Tyr-ONp as substrate by spectrophotometric analysis.
Sequence of Plasminogen (P00747 97-580 limits assumed): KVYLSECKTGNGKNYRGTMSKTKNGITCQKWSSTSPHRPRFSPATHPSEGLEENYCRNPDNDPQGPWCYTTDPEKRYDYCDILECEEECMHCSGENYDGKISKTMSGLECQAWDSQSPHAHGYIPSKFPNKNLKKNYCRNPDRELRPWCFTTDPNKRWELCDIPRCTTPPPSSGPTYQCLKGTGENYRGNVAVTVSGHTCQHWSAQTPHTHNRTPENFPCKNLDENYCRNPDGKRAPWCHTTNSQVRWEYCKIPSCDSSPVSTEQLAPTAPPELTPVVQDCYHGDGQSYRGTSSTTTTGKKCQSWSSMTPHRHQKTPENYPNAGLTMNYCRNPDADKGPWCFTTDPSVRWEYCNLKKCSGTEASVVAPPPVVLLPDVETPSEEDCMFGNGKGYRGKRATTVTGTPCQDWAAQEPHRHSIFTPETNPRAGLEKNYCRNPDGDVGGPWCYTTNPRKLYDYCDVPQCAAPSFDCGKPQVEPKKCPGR
Sequence of Plasminogen (P00747 581-810 limits assumed): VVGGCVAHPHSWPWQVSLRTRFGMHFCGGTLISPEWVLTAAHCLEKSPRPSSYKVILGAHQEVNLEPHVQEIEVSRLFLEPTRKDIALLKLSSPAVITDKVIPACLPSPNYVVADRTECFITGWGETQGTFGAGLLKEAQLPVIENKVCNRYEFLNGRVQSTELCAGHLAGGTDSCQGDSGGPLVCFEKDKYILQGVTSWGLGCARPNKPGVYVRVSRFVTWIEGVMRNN
Test [2] concerns the target T1, Complement C1s subcomponent. Nature of the test: Competitive inhibition of esterase activity of human activated C1s subunit of first complement component assessed as decrease in p-nitrophenol production using N-Z-L-Lys-ONp as substrate by spectrophotometric analysis.

Several values for one entry are separate records, joined by “and”; a condition that tells them apart may be missing. Equal entries are not always repeated.

The Ki is the dissociation constant of the complex between target and ligand, obtained from inhibition or displacement. For `Cc1ccc(C(=N)N)cc1C`, in test [1], the Ki was 9990 µM and 1600 µM and 4000 µM and 6300 µM.

For `N=C(N)c1cccc(N)c1`, the Ki on Plasminogen was 125 µM and 501 µM and 100 µM and 316 µM.

In the case of `Cc1cc(C)cc(C(=N)N)c1`, the Ki in test [1] was 630 µM and 250 µM and 79 µM.

For the compound `N=C(N)c1cccc(OCCCOc2ccccc2)c1`, the Ki in test [1] is 12.5 µM and 15.8 µM and 20 µM and 10 µM.

Turning to `COc1cccc(C(=N)N)c1`, the Ki in test [1] was 160 µM.

Take `N=C(N)c1cccc(CC(=O)C(=O)O)c1`: the Ki in test [2] was 2510 µM.

With `N=C(N)c1cccc(Cc2ccccc2)c1`, the Ki at Plasminogen came to 630 µM.

`N=C(N)c1ccc(CC(=O)C(=O)O)cc1`: the Ki in test [1] is 158 µM and 125 µM and 99.9 µM and 79.4 µM.

Regarding `N=C(N)c1cccc(Br)c1`, in test [1], the Ki came out at 100 µM.
